From ChEMBL document CHEMBL1127994, “Substrate specificity of immobilized penicillin-G acylase towards penicillin and cephalosporin derivatives was studied. The phenylacetyl moiety can be altered at the -position with several small substituents. Depending on polarity and size of the substituent, enzyme activity decreases or increases. …” (Bioorg Med Chem Lett, 1994)

System: not listed separately
Assay: (§1) Hydrolysis half life using immobilized penicillin-G acylase
Type: ADME
Conditions: not given

T1/2 [min]	Compound
200	CC1=C(C(=O)O)N2C(=O)[C@@H](NC(=O)Cc3ccccc3)[C@H]2[S+]([O-])C1 (stereo in doubt; form 1)
33	CC1=C(C(=O)O)N2C(=O)[C@@H](NC(=O)Cc3ccccc3)[C@H]2[S+]([O-])C1 (stereo in doubt; form 2)

System: penicillin-G acylase
Assay: as §1
Type: ADME
Conditions: immobilized penicillin-G acylase

half-life [min]	Compound
> 10000	CC1=C(C(=O)O)N2C(=O)[C@@H](NC=O)[C@H]2[S+]([O-])C1 (some centres not stated)
65	CC1=C(C(=O)O)N2C(=O)[C@@H](NC(=O)Cc3ccsc3)[C@H]2SC1
370	CC1=C(C(=O)O)N2C(=O)[C@@H](NC(=O)C(Br)c3ccccc3)[C@H]2[S+]([O-])C1 (some centres not stated)
55	C=CC1=C(C(=O)O)N2C(=O)[C@@H](NC(=O)Cc3ccccc3)[C@H]2SC1
50	CC1(C)[C@H](C(=O)O)N2C(=O)[C@@H](NC(=O)Cc3ccccc3)[C@H]2S1(=O)=O
80	CC1(C)S[C@@H]2[C@H](NC(=O)C(Br)c3ccccc3)C(=O)N2[C@H]1C(=O)O (some centres not stated)
> 10000	CC1=C(C(=O)O)N2C(=O)[C@@H](NC(=O)c3ccccc3)[C@H]2SC1
3400	CCC(C(=O)N[C@@H]1C(=O)N2[C@@H]1SC(C)(C)[C@@H]2C(=O)O)c1ccccc1 (some centres not stated)
50	Cn1nnnc1SCC1=C(C(=O)O)N2C(=O)[C@@H](NC(=O)Cc3ccccc3)[C@H]2SC1
50	C/C=C/C1=C(C(=O)O)N2C(=O)[C@@H](NC(=O)Cc3ccccc3)[C@H]2SC1
90	CC1(C)[C@H](C(=O)O)N2C(=O)[C@@H](NC(=O)Cc3ccccc3)[C@H]2[S+]1[O-] (some centres not stated)
7000	CC1(C)S[C@@H]2[C@H](NC(=O)C(Cc3ccccc3)c3ccccc3)C(=O)N2[C@H]1C(=O)O (some centres not stated)
1420	CC1=C(C(=O)O)N2C(=O)[C@@H](NC(=O)COc3ccccc3)[C@H]2[S+]([O-])C1 (some centres not stated)
5	CC1=C(C(=O)O)N2C(=O)[C@@H](NC(=O)C(O)c3ccccc3)[C@H]2SC1 (some centres not stated)
1280	CC1=C(C(=O)O)N2C(=O)[C@@H](NC(=O)COc3ccccc3)[C@H]2SC1
25	O=C(Cc1ccccc1)N[C@@H]1C(=O)N2C(C(=O)O)=CCS[C@H]12
12	CC1(C)S[C@@H]2[C@H](NC(=O)[C@H](N)c3ccc(O)cc3)C(=O)N2[C@H]1C(=O)O [AMOXICILLIN]
5	CC1(C)S[C@@H]2[C@H](NC(=O)[C@H](N)c3ccccc3)C(=O)N2[C@H]1C(=O)O [AMPICILLIN]
25	CC1(C)S[C@@H]2[C@H](NC(=O)Cc3ccccc3)C(=O)N2[C@H]1C(=O)O [PENICILLIN G]

Compound	half-life [min]
CC1=C(C(=O)O)N2C(=O)[C@@H](NC(=O)Cc3ccccc3)[C@H]2SC1	45
